System: blood pressure, myocardial contractile force and vascular resistance
Experiment: Administration of a cardiovascular agonist/blocker; indexes on myocardial contractile force and vascular resistance and changes in S1a and S2a observed
Format: in vivo
Details: for change in S1a and S2a when the drug is administered (in words): summary of Tables 2 to 4
Protocol: As cases of administering a cardiovascular agonist, Table 2 illustrates an experimental example in which various indexes on myocardial contractile force and vascular resistance and changes in S1a and S2a were observed when ephedrine of 10 mg as alpha and beta agonist was administered, Table 3 illustrates an experimental example in which various indexes on myocardial contractile force and vascular resistance and changes in S1a and S2a were observed when esmolol of 25 mg as beta-blocker was administered, and Table 4 illustrates an experimental example in which various indexes on myocardial contractile force and vascular resistance and changes in S1a and S2a were observed when phenylephrine of 100 mcg as the alpha agonist was administered. In order to determine the cause of the change in blood pressure, the above-described agents causing the change in blood pressure were administered and the response after the administration was examined.

Compound: COC(=O)CCc1ccc(OCC(O)CNC(C)C)cc1 (centres unmarked) [esmolol]
- S12_R (after administration of esmolol 25 mg, before administration 2.6 ± 0.91, P 0.001): 1.4 ± 0.38
- S′ (after administration of esmolol 25 mg, before administration 13.7 ± 4.4, P 0.011): 10.2 ± 2.1
- S2a (after administration of esmolol 25 mg, before administration 19.6 ± 5.5, P 0.162): 21.1 ± 5.4 au
- S1a (after administration of esmolol 25 mg, before administration 49.3 ± 20.3, P 0.001): 27.5 ± 9.3 au
- SBP (after administration of esmolol 25 mg, before administration 136.1 ± 16.8, P <0.001): 124.4 ± 13.2 mmHg
- RRI (after administration of esmolol 25 mg, before administration 598 ± 96, P <0.001): 700 ± 95 ms
- SVR (after administration of esmolol 25 mg, before administration 776.4 ± 256.1, P 0.062): 750.8 ± 251.0 dyne · sec/cm^5
- dp/dt (after administration of esmolol 25 mg, before administration 1051.5 ± 233.4, P <0.001): 804.3 ± 151.1 mmHg/s
- change in S1a and S2a when the drug is administered (in words): only S1a is significantly decreased

Compound: CNC[C@H](O)c1cccc(O)c1 [phenylephrine]
- S12_R (after administration of phenylephrine 100 mcg, before administration 2.86 ± 1.73, P 0.531): 4.18 ± 6.7
- S2a (after administration of phenylephrine 100 mcg, before administration 14.29 ± 7.53, P 0.016): 18.89 ± 8.14 au
- S1a (after administration of phenylephrine 100 mcg, before administration 33.6 ± 20.8, P 0.428): 31.4 ± 15.5 au
- SBP (after administration of phenylephrine 100 mcg, before administration 93.7 ± 13.2, P 0.014): 111.5 ± 13.8 mmHg
- SVR (after administration of phenylephrine 100 mcg, before administration 452.7 ± 110.0, P 0.007): 524.0 ± 132.2 dyne · sec/cm^5
- RRI (after administration of phenylephrine 100 mcg, before administration 575 ± 141, P 0.384): 528 ± 197 ms
- dp/dt (after administration of phenylephrine 100 mcg, before administration 585.1 ± 106.1, P <0.001): 744.8 ± 95.3 mmHg/s
- change in S1a and S2a when the drug is administered (in words): any significant change does not occur in S1a unlike S2a

Compound: CN[C@@H](C)[C@H](O)c1ccccc1 [ephedrine]
- S12_R (after administration of ephedrine 10 mg, before administration 1.79 ± 0.83, P 0.209): 2.06 ± 0.84
- S′ (after administration of ephedrine 10 mg, before administration 9.7 ± 2.1, P 0.014): 11.3 ± 2.7
- S2a (after administration of ephedrine 10 mg, before administration 17.7 ± 8.1, P 0.004): 22.6 ± 9.2 au
- S1a (after administration of ephedrine 10 mg, before administration 27.6 ± 12.6, P 0.012): 43.7 ± 24.9 au
- SBP (after administration of ephedrine 10 mg, before administration 109.6 ± 13.2, P <0.001): 139.3 ± 14.0 mmHg
- RRI (after administration of ephedrine 10 mg, before administration 652 ± 70, P 0.029): 625 ± 90 ms
- SVR (after administration of ephedrine 10 mg, before administration 719.4 ± 199.2, P 0.011): 892.6 ± 250.2 dyne · sec/cm^5
- dp/dt (after administration of ephedrine 10 mg, before administration 725.2 ± 73.8, P 0.001): 1065.5 ± 217.6 mmHg/s
- change in S1a and S2a when the drug is administered (in words): S1a and S2a increase together

From US11426084B2, “Method, apparatus and computer program for noninvasively determining cause of blood pressure change” (THE ASAN FOUNDATION, priority 2017, dated 2022)
